# Assay results as given in paper PMC12102759 (Protein Science : A Publication of the Protein Society, 2025).
# Read-outs that look alike come from different tables or passages of the source.
# System: PABPC1 PABC
# Assay type: binding, human
# Conditions: DMS-BM library, bait PABPC1 PABC, row aa = residue at this position; for DMS-derived PSSM value (averaged), position N5 / DMS-derived PSSM value (averaged), position N3 / DMS-derived PSSM value, position N3 / DMS-derived PSSM value, position N5 / DMS-derived PSSM value, position N10 / DMS-derived PSSM value (averaged), position N10: N = wild type; for DMS-derived PSSM value, position E8 / DMS-derived PSSM value (averaged), position E8: E = wild type; for DMS-derived PSSM value, position L2 / DMS-derived PSSM value (averaged), position L2: L = wild type
# [1] = prey ATXN2, TLNPNAKEFNPRSF(averaged) over the two overlapping peptides
# [2] = prey ATXN2, peptide KSTLNPNAKEFNPRSF, K = wild type
# [3] = prey ATXN2, peptide KSTLNPNAKEFNPRSF, S = wild type
# [4] = prey ATXN2, peptide TLNPNAKEFNPRSFSQ, A = wild type
# [5] = prey ATXN2, peptide TLNPNAKEFNPRSFSQ
# [6] = prey ATXN2, peptide TLNPNAKEFNPRSFSQ, F = wild type
# [7] = prey ATXN2, peptide TLNPNAKEFNPRSFSQ, P = wild type
# [8] = prey ATXN2, peptide TLNPNAKEFNPRSFSQ, R = wild type
# [9] = prey ATXN2, peptide TLNPNAKEFNPRSFSQ, S = wild type
# [10] = prey ATXN2, peptide TLNPNAKEFNPRSFSQ, T = wild type
# [11] = prey ATXN2, peptide KSTLNPNAKEFNPRSF, P = wild type
# [12] = prey ATXN2, TLNPNAKEFNPRSF(averaged) over the two overlapping peptides, A = wild type
# [13] = prey ATXN2, TLNPNAKEFNPRSF(averaged) over the two overlapping peptides, P = wild type
# [14] = prey ATXN2, TLNPNAKEFNPRSF(averaged) over the two overlapping peptides, F = wild type
# [15] = prey ATXN2, peptide KSTLNPNAKEFNPRSF, F = wild type
substance,measurement,setting,value
TLNPNAKEFNPRSF(averaged) N5A (TLNPAAKEFNPRSF),"DMS-derived PSSM value (averaged), position N5",[1],0.00733
KSTLNPNAKEFNPRSF K9R (KSTLNPNAREFNPRSF),"DMS-derived PSSM value, position K9",[2],0.0319
TLNPNAKEFNPRSF(averaged) N3Q (TLQPNAKEFNPRSF),"DMS-derived PSSM value (averaged), position N3",[1],0.0275
TLNPNAKEFNPRSF(averaged) R12F (TLNPNAKEFNPFSF),"DMS-derived PSSM value (averaged), position R12","prey ATXN2, TLNPNAKEFNPRSF(averaged) over the two overlapping peptides, R = wild type",0.0319
KSTLNPNAKEFNPRSF S2R (KRTLNPNAKEFNPRSF),"DMS-derived PSSM value, position S2",[3],0.0005784
TLNPNAKEFNPRSF(averaged) T1Q (QLNPNAKEFNPRSF),"DMS-derived PSSM value (averaged), position T1","prey ATXN2, TLNPNAKEFNPRSF(averaged) over the two overlapping peptides, T = wild type",0.003845
TLNPNAKEFNPRSF(averaged) N3A (TLAPNAKEFNPRSF),"DMS-derived PSSM value (averaged), position N3",[1],0
TLNPNAKEFNPRSFSQ,"DMS-derived PSSM value, position A6",[4],0.3958
same,"DMS-derived PSSM value, position E8",[5],0.1068
same,"DMS-derived PSSM value, position F9",[6],0.2105
same,"DMS-derived PSSM value, position F14",[6],0.06109
same,"DMS-derived PSSM value, position K7","prey ATXN2, peptide TLNPNAKEFNPRSFSQ, K = wild type",0.0126
same,"DMS-derived PSSM value, position L2",[5],0.3849
same,"DMS-derived PSSM value, position N3",[5],0.2805
same,"DMS-derived PSSM value, position N5",[5],0.009358
same,"DMS-derived PSSM value, position N10",[5],0.0868
same,"DMS-derived PSSM value, position P4",[7],0.1257
same,"DMS-derived PSSM value, position P11",[7],0.07425
same,"DMS-derived PSSM value, position R12",[8],0.03868
same,"DMS-derived PSSM value, position S13",[9],0.06246
same,"DMS-derived PSSM value, position S15",[9],0.03177
same,"DMS-derived PSSM value, position T1",[10],0.03795
TLNPNAKEFNPRSFSQ T1D (DLNPNAKEFNPRSFSQ),"DMS-derived PSSM value, position T1",[10],0.106
KSTLNPNAKEFNPRSF P13M (KSTLNPNAKEFNMRSF),"DMS-derived PSSM value, position P13",[11],0
TLNPNAKEFNPRSFSQ E8Q (TLNPNAKQFNPRSFSQ),"DMS-derived PSSM value, position E8",[5],0.04954
TLNPNAKEFNPRSFSQ A6R (TLNPNRKEFNPRSFSQ),"DMS-derived PSSM value, position A6",[4],0
TLNPNAKEFNPRSF(averaged) A6R (TLNPNRKEFNPRSF),"DMS-derived PSSM value (averaged), position A6",[12],0
TLNPNAKEFNPRSFSQ N10Q (TLNPNAKEFQPRSFSQ),"DMS-derived PSSM value, position N10",[5],0.09458
TLNPNAKEFNPRSFSQ P11N (TLNPNAKEFNNRSFSQ),"DMS-derived PSSM value, position P11",[7],0.04264
TLNPNAKEFNPRSF(averaged) E8H (TLNPNAKHFNPRSF),"DMS-derived PSSM value (averaged), position E8",[1],0.2075
TLNPNAKEFNPRSFSQ N5Y (TLNPYAKEFNPRSFSQ),"DMS-derived PSSM value, position N5",[5],0.002973
TLNPNAKEFNPRSF(averaged) P4V (TLNVNAKEFNPRSF),"DMS-derived PSSM value (averaged), position P4",[13],0.4012
TLNPNAKEFNPRSFSQ F14L (TLNPNAKEFNPRSLSQ),"DMS-derived PSSM value, position F14",[6],0.08923
TLNPNAKEFNPRSF(averaged) N3R (TLRPNAKEFNPRSF),"DMS-derived PSSM value (averaged), position N3",[1],0.012
KSTLNPNAKEFNPRSF S2F (KFTLNPNAKEFNPRSF),"DMS-derived PSSM value, position S2",[3],0.06555
TLNPNAKEFNPRSF(averaged) E8L (TLNPNAKLFNPRSF),"DMS-derived PSSM value (averaged), position E8",[1],0
TLNPNAKEFNPRSF(averaged) P11W (TLNPNAKEFNWRSF),"DMS-derived PSSM value (averaged), position P11",[13],0.01933
TLNPNAKEFNPRSF(averaged) F9S (TLNPNAKESNPRSF),"DMS-derived PSSM value (averaged), position F9",[14],0
TLNPNAKEFNPRSF(averaged) N3H (TLHPNAKEFNPRSF),"DMS-derived PSSM value (averaged), position N3",[1],0
TLNPNAKEFNPRSFSQ L2I (TINPNAKEFNPRSFSQ),"DMS-derived PSSM value, position L2",[5],0.001607
TLNPNAKEFNPRSFSQ N10V (TLNPNAKEFVPRSFSQ),"DMS-derived PSSM value, position N10",[5],0.0007642
TLNPNAKEFNPRSFSQ P11S (TLNPNAKEFNSRSFSQ),"DMS-derived PSSM value, position P11",[7],0.03014
TLNPNAKEFNPRSFSQ A6N (TLNPNNKEFNPRSFSQ),"DMS-derived PSSM value, position A6",[4],0
TLNPNAKEFNPRSFSQ A6P (TLNPNPKEFNPRSFSQ),"DMS-derived PSSM value, position A6",[4],0
TLNPNAKEFNPRSFSQ S15R (TLNPNAKEFNPRSFRQ),"DMS-derived PSSM value, position S15",[9],0.01068
TLNPNAKEFNPRSFSQ T1F (FLNPNAKEFNPRSFSQ),"DMS-derived PSSM value, position T1",[10],0.0001584
TLNPNAKEFNPRSF(averaged) L2A (TANPNAKEFNPRSF),"DMS-derived PSSM value (averaged), position L2",[1],0
TLNPNAKEFNPRSF(averaged) N10R (TLNPNAKEFRPRSF),"DMS-derived PSSM value (averaged), position N10",[1],0.02307
KSTLNPNAKEFNPRSF F16T (KSTLNPNAKEFNPRST),"DMS-derived PSSM value, position F16",[15],0.02121
TLNPNAKEFNPRSFSQ N3W (TLWPNAKEFNPRSFSQ),"DMS-derived PSSM value, position N3",[5],0
TLNPNAKEFNPRSF(averaged) P4L (TLNLNAKEFNPRSF),"DMS-derived PSSM value (averaged), position P4",[13],0.1003
TLNPNAKEFNPRSFSQ P11T (TLNPNAKEFNTRSFSQ),"DMS-derived PSSM value, position P11",[7],0.2817
TLNPNAKEFNPRSF(averaged) S13G (TLNPNAKEFNPRGF),"DMS-derived PSSM value (averaged), position S13","prey ATXN2, TLNPNAKEFNPRSF(averaged) over the two overlapping peptides, S = wild type",0.08376
TLNPNAKEFNPRSF(averaged) N3F (TLFPNAKEFNPRSF),"DMS-derived PSSM value (averaged), position N3",[1],0
TLNPNAKEFNPRSFSQ P4K (TLNKNAKEFNPRSFSQ),"DMS-derived PSSM value, position P4",[7],0
TLNPNAKEFNPRSF(averaged) N5V (TLNPVAKEFNPRSF),"DMS-derived PSSM value (averaged), position N5",[1],0.05544
TLNPNAKEFNPRSF(averaged) F9E (TLNPNAKEENPRSF),"DMS-derived PSSM value (averaged), position F9",[14],0.02703
TLNPNAKEFNPRSF(averaged) N5G (TLNPGAKEFNPRSF),"DMS-derived PSSM value (averaged), position N5",[1],0.006922
TLNPNAKEFNPRSF(averaged) N10H (TLNPNAKEFHPRSF),"DMS-derived PSSM value (averaged), position N10",[1],0.03178
TLNPNAKEFNPRSF(averaged) A6M (TLNPNMKEFNPRSF),"DMS-derived PSSM value (averaged), position A6",[12],0
TLNPNAKEFNPRSF(averaged) L2M (TMNPNAKEFNPRSF),"DMS-derived PSSM value (averaged), position L2",[1],0.2157
TLNPNAKEFNPRSFSQ N5T (TLNPTAKEFNPRSFSQ),"DMS-derived PSSM value, position N5",[5],0.0193
KSTLNPNAKEFNPRSF P13F (KSTLNPNAKEFNFRSF),"DMS-derived PSSM value, position P13",[11],0.002959
TLNPNAKEFNPRSFSQ P4D (TLNDNAKEFNPRSFSQ),"DMS-derived PSSM value, position P4",[7],0
TLNPNAKEFNPRSFSQ R12I (TLNPNAKEFNPISFSQ),"DMS-derived PSSM value, position R12",[8],0.04014
TLNPNAKEFNPRSFSQ A6E (TLNPNEKEFNPRSFSQ),"DMS-derived PSSM value, position A6",[4],0
KSTLNPNAKEFNPRSF K9M (KSTLNPNAMEFNPRSF),"DMS-derived PSSM value, position K9",[2],0.1105
KSTLNPNAKEFNPRSF F16V (KSTLNPNAKEFNPRSV),"DMS-derived PSSM value, position F16",[15],0.175
TLNPNAKEFNPRSFSQ N10R (TLNPNAKEFRPRSFSQ),"DMS-derived PSSM value, position N10",[5],0.03785
KSTLNPNAKEFNPRSF S15A (KSTLNPNAKEFNPRAF),"DMS-derived PSSM value, position S15",[3],0.02636
TLNPNAKEFNPRSFSQ S15T (TLNPNAKEFNPRSFTQ),"DMS-derived PSSM value, position S15",[9],0.0005737
TLNPNAKEFNPRSF(averaged) N10F (TLNPNAKEFFPRSF),"DMS-derived PSSM value (averaged), position N10",[1],0.02798
TLNPNAKEFNPRSFSQ T1N (NLNPNAKEFNPRSFSQ),"DMS-derived PSSM value, position T1",[10],0.02571
TLNPNAKEFNPRSFSQ N5L (TLNPLAKEFNPRSFSQ),"DMS-derived PSSM value, position N5",[5],0.06159
KSTLNPNAKEFNPRSF A8T (KSTLNPNTKEFNPRSF),"DMS-derived PSSM value, position A8","prey ATXN2, peptide KSTLNPNAKEFNPRSF, A = wild type",0
TLNPNAKEFNPRSF(averaged) E8T (TLNPNAKTFNPRSF),"DMS-derived PSSM value (averaged), position E8",[1],0.1317
TLNPNAKEFNPRSFSQ S13V (TLNPNAKEFNPRVFSQ),"DMS-derived PSSM value, position S13",[9],0.02255
TLNPNAKEFNPRSFSQ A6T (TLNPNTKEFNPRSFSQ),"DMS-derived PSSM value, position A6",[4],0.2659
